Assay results reported in US20250186398A1, “CONTINUOUS DOSING REGIMEN FOR TREATMENT OF A CONDITION OF THE EYE” (EYEPOINT PHARMACEUTICALS, INC., priority 2022, published 2025).

Columns and labels:
[1] = Intravitreal Pharmacokinetic Study of vorolanib insert, 12 months (Example 5B); format: in vivo, Dutch Belted Rabbits
Procedure: Another Intravitreal Pharmacokinetic Study was performed in Dutch Belted Rabbits. The objective of this study was to evaluate the plasma and ocular pharmacokinetics of a vorolanib insert following bilateral intravitreal injection in rabbit eyes. Animals were evaluated up to 12 months following placement of the intravitreal insert.
Dutch Belted rabbits were administered vorolanib inserts in each eye by intravitreal injection. Group 1 eyes received 1 insert containing 643 μg of vorolanib, and Group 2 eyes received 2 inserts containing 900 μg total. Blood samples were collected at 2, 7, 14, and 28 days and then once monthly for months 2-12. Inserts were recovered at 2, 7, and 14 days and then at 1, 2, 4, 6, 8, 10, and 12 months. Residual vorolanib levels were determined in all explants using high-performance liquid chromatography. The vorolanib release rate was estimated based on residual levels in the explants. Plasma and ocular tissues were separated and analyzed for vorolanib and its metabolite using liquid chromatography-mass spectrometry.

[2] = 18 month intravitreal toxicity and plasma pharmacokinetics study (Example 6); format: in vivo
Procedure: An 18 month intravitreal toxicity study for the insert was also performed in 80 Dutch Belted rabbits (40 male and 40 female). Animals were evaluated for a period of 6 and 18 months following placement of intravitreal inserts. The objective was to characterize the ocular toxicity, plasma pharmacokinetics and biodegradation of a vorolanib insert following bilateral intravitreal injection.
The tables below describe the group assignments and dose levels. For the toxicology groups, animals were sacrificed at 6 months and 18 months. For the plasma pharmacokinetic analysis, blood samples were collected at Days 1, 3, and 7 and then 1, 2, 3, 4, 5, 6, 12, 14, 16 and 18 Months.
The placebo group (1) animals received two placebo inserts by injection in each eye. The low dose group (2) animals received 2 inserts in each eye. The mid dose group (3) animals received 3 inserts in each eye given in 2 separate injections. The high dose group (4) animals received 4 inserts in each eye given in 2 separate injections (2 inserts/injection). The highest dose group (5) animals received 6 inserts in each eye given in 2 separate injections (3 inserts/injection).
At each scheduled timepoint, whole blood was collected via puncture of a marginal ear vein. Samples were analyzed for clinical pathology and plasma pharmacokinetics. Animals were euthanized according to the schedules described above. A complete gross necropsy was performed on all animals that were sacrificed or found dead during the study. Organs were weighed and tissues collected. Ocular tissues were collected for histopathology only.

[3] = Intravitreal Pharmacokinetic Study of vorolanib insert (Example 5A); format: in vivo, Male Dutch Belted Rabbits
Procedure: An Intravitreal Pharmacokinetic Study was performed in Male Dutch Belted Rabbits. The objective of this study was to characterize the plasma and ocular tissue pharmacokinetics of a vorolanib insert following bilateral intravitreal injection on Day 1. Animals were evaluated up to 24 months following placement of the intravitreal insert.
The low dose group (1) received 3 inserts per eye for a total dose of 630 μg per eye. The high dose group (2) animals received 6 inserts per eye given in 2 separate injections (3 inserts per injection) for a total dose of 1,260 μg per eye.
Prior to each scheduled sacrifice point, one whole blood sample was collected from a targeted 2 animals per group via puncture of a marginal ear vein. Samples were tested for levels of vorolanib and its metabolite. Two animals per group were euthanized on day 1 at 6, 12, 24 and 48 hours, on days 7 and 14, and at 1, 2, 4, 6, 8, 16 and 24 months.

[4] = system: Laser-Induced Choroidal Neovascularization (CNV); assay: Swine (Mini-pig) Model of Laser-Induced Choroidal Neovascularization, fluorescein angiography (Example 7); format: in vivo
Procedure: Safety and efficacy of a vorolanib insert were evaluated in a Swine (Mini-pig) Model of Laser-Induced Choroidal Neovascularization (CNV). The primary objective of this study was to evaluate the long-term safety and inhibition of vascular permeability and neovascularization in a laser-induced model of choroidal neovascularization (CNV) using a vorolanib insert in swine.
On the day of lasering (Groups 1-4) animals were treated with an 810 nm diode laser delivered through an indirect ophthalmoscope. Approximately 6 single laser spots were placed between retinal veins. Both eyes underwent laser treatment according to the schedule in the table above.
On the day of intravitreal injections animals were anesthetized and the eyes were aseptically prepared. […] Animals were allowed to recover normally from the procedure. The pigs were given a topical drop of antibiotic ophthalmic solution 4-6 hours later, and then BID for 2 additional days with at least 6 hours between doses. Animals were dosed on either Day 0 immediately following laser CNV induction or 7 days prior to laser CNV induction according to the schedule in the table above.
Flourescein Angiography was done in both eyes in anesthetized animals at the timepoints as indicated in the experimental design table.

Compound	drop in mean vorolanib concentration in ocular tissues and plasma ([1]; between months 8 and 10)	vorolanib exposure rank order ([1]; ocular tissues and plasma)	concentrations in target ocular tissues (choroid and retina) relative to IC50 for VEGFR2 ([1]; through 8 months)	vorolanib levels in the vitreous and the retina/choroid relative to IC50 for VEGFR ([2]; at the time points tested)	vorolanib plasma levels ([2]; intravitreal inserts)	adverse findings attributed to vorolanib ([2]; up to 6 inserts per eye)	dose proportionality of maximum observed concentrations in vitreous and retina/choroid ([3]; 630 vs 1,260 μg per eye)	vorolanib plasma levels ([3]; PK study, intravitreal inserts)	change in plasma levels ([3]; after 99 days)	efficacy in this model ([4]; 2 mg IVT)	reduction in Corrected Total Lesion Fluorescence (CTLF) from Day 7 to Day 28, rank among Groups 1-4 ([4]; Group 1, 2 mg, 50 μL/eye IVT, Day 0)
Cc1[nH]c(/C=C2\C(=O)Nc3ccc(F)cc32)c(C)c1C(=O)N[C@H]1CCN(C(=O)N(C)C)C1 [vorolanib, (S,Z)—N-(1-(Dimethylcarbamoyl)pyrrolidin-3-yl)-5-((5-fluoro-2-oxoindolin-3-ylidene)methyl)-2,4-dimethyl-1H-pyrrole-3-carboxamide]	85%-99%	choroid=retina=vitreous>aqueous humor>plasma	above the IC50 for VEGFR2	significantly above the IC50 for VEGFR	low pg/mL range	No adverse findings	nearly dose proportional	low pg/mL range	No apparent change		
aflibercept: VEGF inhibitor (Regeneron), intravitreal standard of care, comparator in swine CNV model										normal amounts of efficacy	largest reduction
